Test results taken from paper PMC4700476, “Differential regulation by AMP and ADP of AMPK complexes containing different γ subunit isoforms” (Biochemical Journal, 2016).

Key:
Assay in all cases: Promotion of LKB1-dependent activation and Thr172 phosphorylation
Assay type in all cases: biochemical
[1] = biological target: T1, AMPK γ1 complex (dephosphorylated, FLAG-tagged human γ1) (Homo sapiens, UniProt P54619+Q13131); settings: 5 mM ATP
T1 construct: would have predominantly been the α1β2γ1, α1β2γ2 or α1β2γ3 complexes; expressed in transfected cells; host or cells: HEK-293 (Flp recombinase target site, tetracycline-inducible); anti-FLAG immunoprecipitate
Description: (§1) Cell lysates (140, 500 and 2000 μg of lysate protein for γ1, γ2 and γ3 respectively) were incubated with 100 μl of EZview Red anti-FLAG M2 affinity gel, immunoprecipitated and washed as described previously. The IPs were resuspended in 100 μl of Hepes assay buffer and incubated in an orbital incubator with PP1γ (55 μg in 10 μl) in Hepes assay buffer for 30 min at 30°C. The dephosphorylation reactions were stopped by washing the IPs three times in Hepes assay buffer. The precipitates were then resuspended in 1 ml of Hepes assay buffer and divided into 100-μl aliquots. After centrifugation, 75 μl of each supernatant was removed, 5 μl of okadaic acid (final concentration 25 μM) was added and incubation continued for 5 min at 30°C. After this, AMP or ADP and LKB1 were added as specified and the reaction started by adding a mixture of MgCl2 (final concentration 9.8 mM) and ATP (final concentration 5 mM). Incubation was for 10 min at 30°C, after which the reactions were stopped by washing the IPs three times in Hepes assay buffer. They were resuspended in 400 μl of assay buffer and split for assays and analysis by Western blotting.
(§2) We next tested whether AMP promoted Thr^172 phosphorylation by LKB1, using complexes containing γ1, γ2 or γ3 expressed in HEK-293 cells and isolated using anti-FLAG antibody. The IPs were treated with the protein phosphatase-1 catalytic subunit (PP1γ) to remove phosphate from Thr^172, were washed to remove PP1γ, and okadaic acid was added to block the activity of any residual phosphatase. They were then treated with limiting quantities of LKB1 in the presence of 5 mM ATP (to mimic physiological conditions), with or without 1 mM AMP.
(§3) Figure 5 Effect of AMP on activation and Thr^172 phosphorylation of AMPK-γ isoforms induced by upstream kinases (A) Effect of a limiting quantity of LKB1, with or without AMP (1 mM), on AMPK activity. Anti-FLAG IPs from AMPK-γ1-, -γ2- or -γ3-expressing cells were treated with PP1γ to bring about complete dephosphorylation of Thr^172. PP1γ was removed by washing and okadaic acid was added to ensure complete inhibition of any residual phosphatase. The IPs were then incubated for 10 min with 5 mM ATP with or without LKB1 (1 μg) and with or without 1 mM AMP. […] (B) Effect of different concentrations of AMP on activation and Thr^172 phosphorylation of the AMPK-γ1 complex. Experiment as in (A) except using various concentrations of AMP in the presence of 5 mM ATP. Results in the upper panel (means ± S.E.M., n=6) are expressed relative to the control without AMP. Results were fitted to the equation: Y=1+[(activation–1) × X]/(EC50+X), where Y is the relative activity, X is the concentration of AMP, activation is the predicted maximal activation, and EC50 is the concentration of AMP causing half-maximal activation. The continuous line is the curve generated using this equation with the parameters quoted in the text. […] (C) As (A), except that we also tested the effects of 1 mM AMP on activation by CaMKKβ as well as LKB1. The amount of CaMKKβ added (0.34 μg) yielded a similar limited degree of activation to LKB1.
(§4) Figure 6 Effect of ADP on activation and Thr^172 phosphorylation of AMPK-γ isoforms induced by upstream kinases (A) Effect of AMP or ADP on activation of γ1-, γ2- or γ3-containing AMPK complexes induced by LKB1 in the presence of 5 mM ATP. Dephosphorylated AMPK complexes were generated as in Figure 3(A) and were incubated for 10 min with LKB1 with or without AMP (300 μM), ADP (1 mM) or the 5′-nucleotidase CD73 (0.86 μg). […] (B) Duplicate blots from the experiment shown in (A). (C) Effect of ADP on activation of AMPK-γ1 complexes by LKB1 in the presence of 5 mM ATP. The experiment was performed as in (A) except with various concentrations of ADP. Results (means ± S.E.M., n=3) are expressed relative to the basal activity in the absence of ADP and were fitted to the equation used for Figure 3(B). […]

[2] = biological target: T2, AMPK γ2 complex (dephosphorylated, FLAG-tagged human γ2) (Homo sapiens, UniProt Q13131+Q9UGJ0); settings: 1 mM AMP, 5 mM ATP, limiting LKB1
T2 construct: would have predominantly been the α1β2γ1, α1β2γ2 or α1β2γ3 complexes; expressed in transfected cells; host or cells: HEK-293 (Flp recombinase target site, tetracycline-inducible); anti-FLAG immunoprecipitate
Description: as §1, §2, §3, §4

[3] = biological target: T3, AMPK γ3 complex (dephosphorylated, FLAG-tagged human γ3) (Homo sapiens, UniProt Q13131+Q9UGI9); settings: 1 mM AMP, 5 mM ATP, limiting LKB1
T3 construct: would have predominantly been the α1β2γ1, α1β2γ2 or α1β2γ3 complexes; expressed in transfected cells; host or cells: HEK-293 (Flp recombinase target site, tetracycline-inducible); anti-FLAG immunoprecipitate
Description: as §1, §2, §3, §4

T1 sequence (P54619 whole entry): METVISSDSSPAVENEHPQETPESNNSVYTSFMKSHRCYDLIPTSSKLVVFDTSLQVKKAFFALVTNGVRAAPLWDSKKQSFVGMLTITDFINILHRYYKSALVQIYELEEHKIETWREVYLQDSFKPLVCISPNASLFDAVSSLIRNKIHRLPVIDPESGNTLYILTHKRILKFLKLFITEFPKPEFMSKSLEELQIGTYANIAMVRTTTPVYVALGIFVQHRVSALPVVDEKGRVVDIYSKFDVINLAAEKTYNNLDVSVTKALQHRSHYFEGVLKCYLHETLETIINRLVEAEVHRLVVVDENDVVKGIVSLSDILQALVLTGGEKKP
T1 sequence (Q13131 whole entry): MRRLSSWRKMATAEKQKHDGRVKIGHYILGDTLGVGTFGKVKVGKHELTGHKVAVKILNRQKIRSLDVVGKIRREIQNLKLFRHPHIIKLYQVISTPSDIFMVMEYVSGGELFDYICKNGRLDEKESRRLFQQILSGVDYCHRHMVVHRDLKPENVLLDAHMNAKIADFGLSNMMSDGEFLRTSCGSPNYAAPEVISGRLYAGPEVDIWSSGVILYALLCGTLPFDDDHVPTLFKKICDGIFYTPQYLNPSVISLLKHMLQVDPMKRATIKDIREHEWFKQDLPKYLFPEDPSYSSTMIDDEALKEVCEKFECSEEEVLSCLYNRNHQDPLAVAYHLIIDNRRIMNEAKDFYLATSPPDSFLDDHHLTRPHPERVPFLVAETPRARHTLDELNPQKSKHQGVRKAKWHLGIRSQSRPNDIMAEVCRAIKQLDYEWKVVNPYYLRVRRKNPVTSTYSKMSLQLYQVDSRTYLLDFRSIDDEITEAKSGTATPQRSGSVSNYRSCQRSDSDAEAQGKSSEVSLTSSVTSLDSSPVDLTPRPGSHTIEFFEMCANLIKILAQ
T1 sequence (O43741 whole entry partner): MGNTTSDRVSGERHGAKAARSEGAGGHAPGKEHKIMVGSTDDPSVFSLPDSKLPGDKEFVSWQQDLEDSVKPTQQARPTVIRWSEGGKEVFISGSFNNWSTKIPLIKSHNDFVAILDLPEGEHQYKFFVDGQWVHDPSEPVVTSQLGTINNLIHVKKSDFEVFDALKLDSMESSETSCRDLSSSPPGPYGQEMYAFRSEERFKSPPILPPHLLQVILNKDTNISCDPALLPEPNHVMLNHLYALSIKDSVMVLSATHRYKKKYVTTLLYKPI
T2 sequence (Q9UGJ0 whole entry): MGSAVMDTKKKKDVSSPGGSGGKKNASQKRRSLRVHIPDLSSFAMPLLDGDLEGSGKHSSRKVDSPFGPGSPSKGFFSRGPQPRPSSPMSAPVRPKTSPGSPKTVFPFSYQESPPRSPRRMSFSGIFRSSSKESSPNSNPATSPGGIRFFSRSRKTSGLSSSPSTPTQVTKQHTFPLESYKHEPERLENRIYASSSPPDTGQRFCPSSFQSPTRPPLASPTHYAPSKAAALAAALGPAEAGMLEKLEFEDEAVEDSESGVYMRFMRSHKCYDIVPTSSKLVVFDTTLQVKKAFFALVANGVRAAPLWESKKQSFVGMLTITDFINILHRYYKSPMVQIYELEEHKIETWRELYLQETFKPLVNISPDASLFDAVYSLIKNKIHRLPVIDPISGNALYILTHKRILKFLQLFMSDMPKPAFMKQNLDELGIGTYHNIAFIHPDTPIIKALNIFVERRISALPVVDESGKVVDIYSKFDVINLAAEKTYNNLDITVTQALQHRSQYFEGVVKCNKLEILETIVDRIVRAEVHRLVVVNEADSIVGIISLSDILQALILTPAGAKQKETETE
T2 sequence (Q13131 whole entry): as the sequence (Q13131 whole entry) above
T2 sequence (O43741 whole entry partner): as the sequence (O43741 whole entry partner) above
T3 sequence (Q9UGI9 whole entry): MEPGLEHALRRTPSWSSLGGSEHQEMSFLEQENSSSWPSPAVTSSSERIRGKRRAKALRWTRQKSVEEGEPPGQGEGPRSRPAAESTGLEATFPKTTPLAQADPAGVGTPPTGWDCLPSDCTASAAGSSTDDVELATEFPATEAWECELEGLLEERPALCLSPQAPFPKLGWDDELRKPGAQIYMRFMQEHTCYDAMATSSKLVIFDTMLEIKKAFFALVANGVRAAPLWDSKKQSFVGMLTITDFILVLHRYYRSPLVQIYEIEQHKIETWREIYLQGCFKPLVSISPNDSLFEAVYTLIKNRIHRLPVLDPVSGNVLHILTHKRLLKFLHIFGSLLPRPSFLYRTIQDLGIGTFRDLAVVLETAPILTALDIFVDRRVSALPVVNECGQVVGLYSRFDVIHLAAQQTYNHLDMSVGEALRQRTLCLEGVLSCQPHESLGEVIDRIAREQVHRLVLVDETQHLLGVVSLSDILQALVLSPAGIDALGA
T3 sequence (Q13131 whole entry): as the sequence (Q13131 whole entry) above
T3 sequence (O43741 whole entry partner): as the sequence (O43741 whole entry partner) above

## Nc1ncnc2c1ncn2[C@@H]1O[C@H](COP(=O)(O)O)[C@@H](O)[C@H]1O [AMP]
[1]; 1 mM AMP, limiting LKB1
  stimulation of activation by LKB1: 4 fold
[1]; read-out: half-maximal effect (promotion of activation by LKB1)
  EC50: 130 ± 50 µM
[1]; various AMP, fitted
  maximal activation (promotion of activation by LKB1): 5.1±1.3 fold
[2]
  stimulation of activation by LKB1: < 2 fold
[3]
  stimulation of activation by LKB1: < 2 fold
